# Experiments:
# [1] = test system: T. cruzi Tulahuen trypomastigotes; assay: T. cruzi trypomastigote assay (Cell Titer-Glo viability, ATP luminescence); format: cell-based, Trypanosoma cruzi; conditions: for Trypomastigotes pIC50 48 hours: 48 hours incubation; for Trypomastigotes pIC50 48 hours / Trypomastigotes pIC50 72 hours: pIC50 = -log10 IC50 in molar units; for Trypomastigotes pIC50 72 hours: 72 hours incubation; for 72 pIC50 (trypomastigotes, raw data of Fig 1D): 72 hours, plotted values, censored values given without sign; for 48 pIC50 / 72 pIC50: trypomastigote assay; for 48 pIC50: 48 h; for 72 pIC50: 72 h
# Procedure, shortened: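 Compounds were tested in dose response or once at a final 5 μM against 5 × 10^4 trypomastigotes per well (DMEM, 2% FBS), collected on days 5–8 from LLC-MK2 infected cultures. ATP luminescence via CellTiter-Glo reports live parasites; DMSO defines 0% and cell-free wells 100% effect.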
# [2] = test system: H9c2 (rat cardiomyocytes); assay: RoK assay, number of host cells nuclei (drug-related cytotoxicity, H9c2 output, Cmin_Tox); conditions: for Cmin_Tox: H9c2 host cells
# Procedure: For this high-content intracellular imaging assay, H9c2 cells were seeded in 225 cm^2 T- FLASK in DMEM with 10% FBS for 4 h to allow attachment. T. cruzi trypomastigotes, collected at days 5 to 8 after infection from LLC-MK2 parasite infected cultures, were allowed to swim out for 4 h at 37°C from a centrifuged pellet (1,600 x g / 10 min). Trypomastigotes were then collected and counted in a CASY Cell Counter using the 60 μm capillary. […] Cells were washed once with PBS before incubation of the infected H9c2 monolayer with trypsin (Life-Technologies) to detach cells from the flask. Cells were counted in a CASY Cell Counter, using the 150 μm capillary, and their density set at 5 x 10^4 cells/mL in supplemented DMEM. Infected H9c2 were dispensed into 384-well plates at 50 μL per well using a Multidrop Combi dispenser. Control wells used to determine a 100% parasitic growth (full 6th column of each plate) were left untreated, whereas not infected cells were added in the control wells used as 0% parasite growth (or 100% parasite growth inhibition; full 18th column of each plate). The four plates corresponding to each RoK assay were predispensed for the same mother plate. […] Cultures were then fixed and stained with 50 μL per well of a PBS solution containing 4% formaldehyde and 2 μM DRAQ5 DNA dye (BioStatus, UK). Then plates were read in a PerkinElmer Opera Phenix using a 20x objective, 3 fields per well. DRAQ5 signal was detected using 640 nm excitation laser and a 690/50 nm emission detection filter. Automated image analysis was performed with a script developed on Acapella High Content Imaging and Analysis Software (PerkinElmer). Two outputs were provided for each sample well: (1) number of host cells nuclei to determine drug-related cytotoxicity (aka H9c2) and (2) number of amastigotes per cell as infection level measurement (aka AM/CELL). Each output is plotted as a time course for each compound at every concentration. This assay was adapted from Alonso-Padilla et al. and Peña et al..
# • ME (Maximum Effect) is the maximum percentage of parasite burden reduction reached by any compound concentration. Compounds that decrease the initial parasite load will show a positive value of ME, whereas compounds that allow the progression of infection will render a negative ME value. […] It is calculated for the MCC50 (t50%_MCC50) and for the maximum concentration (t50%_Cmax). […] The value of this parameter is not either interpolated or extrapolated, and it refers to the first experimental time-course point at which a 50% of effect is reached or exceeded. • tlag defines the time elapsed for one particular concentration to reduce parasite burden between two consecutive points at any moment of the time course. It is calculated for the MCC50 (tlag_MCC50) and for the maximum concentration (tlag_Cmax). The value of this parameter is not either interpolated or extrapolated, and it refers to the first experimental time-course point of a positive slope in the normalised plot (i.e. %Cidal_Response). • Cmin_Tox (Minimal CytoToxic Concentration) is the lowest compound concentration that is reducing the number of host mammalian cells below 50% of initial cell density. Cytotoxic compounds may mislead a bona fide antiparasitic action. Therefore, this descriptor is used to flag this kind of compounds and warn about the genuine meaning of the rest of descriptors.
Structure (SMILES),Trypomastigotes pIC50 48 hours [1],Trypomastigotes pIC50 72 hours [1],"72 pIC50 (trypomastigotes, raw data of Fig 1D) [1]",48 pIC50 ([1]; figure 1A),72 pIC50 ([1]; figure 1A),72 pIC50 ([1]; figure 1B),Cmin_Tox [2],cytotoxicity versus host cells (in words) [2]
CN(C)Cc1ccc(-c2ccc(S(=O)(=O)NCC3CCCO3)c(F)c2)cc1.O=C(O)C(F)(F)F (stereo not drawn) [TCMDC-143085],< 4.3,< 4.3,< 4.3,< 4.2,< 4.3,< 4.3,>50 µM,
CCOc1ccc(NC(=O)C=Cc2ccc(CC)o2)cc1 [TCMDC-143160],5.4,5,,,,,50.0 µM,
CC(C)N(C(=O)CN1C(=O)C(N)C(=O)N(c2ccccc2)c2ccccc21)c1ccccc1 (stereo not drawn) [TCMDC-143071],< 4.3,< 4.3,< 4.3,< 4.3,< 4.3,< 4.3,>50 µM,
COc1ccc(C2CC(c3ccccc3Cl)=NN2C(=O)CNC(=O)C2CCC2)cc1 (stereo not drawn) [TCMDC-143130],4.6,4.7,,,,,>50 µM,
O=C(CSc1ccc(-c2ccccn2)nn1)Nc1ccc(Cl)cc1 [TCMDC-143552],5.4,5.5,,,,,>50 µM,
Cc1cc(N(C)C)nc(Nc2ccccc2C)n1 [TCMDC-143109],5.7,5.6,,,,,>50 µM,
COc1ccc(CN(C)Cc2ccncc2)cc1-c1ccc(S(=O)(=O)NC2CCC2)s1.O=C(O)C(F)(F)F.O=C(O)C(F)(F)F [TCMDC-143084],5,4.9,,,,,>50 µM,
Fc1ccc(OC2CC(NCc3cccc4cn[nH]c34)C2)cc1C(F)(F)F (stereo not drawn) [TCMDC-143455],5,5,5,5,5,5,16.7 µM,
Cn1cncc1CN1CCC2(CC1)COC(Cc1ccccc1)C2 (stereo not drawn) [TCMDC-143502],< 4.3,< 4.3,< 4.3,< 4.3,< 4.3,< 4.3,>50 µM,
CC(C)Oc1cccc(N2CCC(C(=O)N3CCCN(C(C)C)CC3)CC2)c1.Cl [TCMDC-143432],< 4.3,< 4.3,< 4.3,< 4.3,< 4.3,< 4.3,>50 µM,
CCN(Cc1ccncc1)Cc1ccc(NC(=O)c2cc(-c3ccc(F)cc3)n[nH]2)cc1 [TCMDC-143433],4.9,4.5,,,,,>50 µM,
CNc1c(C(N)=O)c(-c2ccc3scnc3c2)nn1CC(F)(F)F.O=C(O)C(F)(F)F [TCMDC-143463],< 4.3,< 4.3,< 4.3,< 4.3,< 4.3,< 4.3,>50 µM,
COc1cccc(CCNC(=O)C(c2cn[nH]c2)N2CCN(c3ccc(Cl)cc3)CC2)c1 (stereo not drawn) [TCMDC-143434],4.4,4.5,,,,,>50 µM,hints of cytotoxicity even at low concentrations
O=C(O)/C=C\C(=O)O.O=C(c1ccc(OCCCc2cnc[nH]2)cc1)C1CC1 [TCMDC-143632],< 4.3,< 4.3,< 4.3,< 4.3,< 4.3,< 4.3,>50 µM,
COc1ccc2ncc(=O)n(CCN3CCOC(CNCc4ccc(C(F)(F)F)cc4F)C3)c2n1 (stereo not drawn) [TCMDC-143384],< 4.3,< 4.3,< 4.3,< 4.3,< 4.3,< 4.3,>50 µM,
Cc1sc(C)c(C(F)(F)F)c1CNCCCNc1cc(=O)c2ccccc2[nH]1.Cl [TCMDC-140766],4.9,5.3,,,,,50.0 µM,
CNc1cc(C)nc(C2CN(C(=O)c3n[nH]c4ccccc34)CCO2)c1 (stereo not drawn) [TCMDC-143494],5.9,5.5,,,,,>50 µM,
O=C(N1CCc2ccccc2CC1)C1(C(=O)N2CCC(n3c(=O)[nH]c4ncccc43)CC2)CC1.O=C(O)C(F)(F)F [TCMDC-143381],< 4.3,< 4.3,< 4.3,< 4.3,< 4.3,< 4.3,>50 µM,
O=C1CSC(c2cccnc2)N1c1ccc(Cl)cc1Cl (stereo not drawn) [TCMDC-143114],< 4.3,< 4.3,< 4.3,< 4.3,< 4.3,< 4.3,>50 µM,
O=C(C1CCCCC1)N1CCN(c2nnc(-c3ccccc3)c3ccccc23)CC1 [TCMDC-143511],< 4.3,< 4.3,< 4.3,< 4.3,< 4.3,< 4.3,>50 µM,
c1ccc(CCNCc2cncc3nc(-c4cnccn4)n(C4CCCCC4)c23)cc1 [TCMDC-143346],< 4.3,< 4.3,< 4.3,< 4.3,< 4.3,< 4.3,>50 µM,
COc1cc(-c2nc(N3CCOCC3)sc2-c2ccnc(NC3CCOCC3)n2)ccc1Cl.O=C(O)C(F)(F)F [TCMDC-143414],< 4.3,< 4.3,< 4.3,< 4.3,< 4.3,< 4.3,>50 µM,
CC(CNS(=O)(=O)c1ccc(OC(F)F)cc1)c1ccc(NC(=O)c2ccncc2)cc1 (stereo not drawn) [TCMDC-143535],4.6,4.4,,,,,>50 µM,
c1ccc2c(CCOc3nccnc3-c3ccncc3)c[nH]c2c1 [TCMDC-143562],4.4,4.5,,,,,>50 µM,
O=C(c1cccc(Cl)c1Cl)N1CCn2c1nc(-c1ccncc1)cc2=O [TCMDC-143409],< 4.3,< 4.3,< 4.3,< 4.3,< 4.3,< 4.3,>50 µM,
OCCCNc1nc(Nc2ccncc2)nc2ccccc12 [TCMDC-143476],5.3,5.6,,,,,>50 µM,
Cc1[nH]c2ccccc2c(=O)c1Cc1c(C)[nH]c2ccccc2c1=O [TCMDC-143490],5.7,4.8,,,,,>50 µM,
